Experimental data published in patent US11266626B2, “Reduction of ER-MAM-localized APP-C99 and methods of treating alzheimer's disease” (THE TRUSTEES OF COLUMBIA UNIVERSITY IN THE CITY OF NEW YORK, priority 2015, dated 2022).
“Also recorded” adds a separate entry of the source.

Columns and labels:
[1] = test system: SH-SY5Y cells; experiment: Mitochondrial content and biogenesis (VDAC western blot; qRT-PCR); format: cell-based, human
[2] = test system: acid (aSMase) and neutral (nSMase) sphingomyelinases; experiment: Analysis of sphingomyelinase activity; format: cell-based, mouse; conditions: PS-DKO MEFs; BI 100 nM; Aβ40:Aβ42 10:1, 6 ng/ml total
Experimental: One hundred μg of protein were assayed in 100 mM of the appropriate buffer (Tris/glycine for pH 7.0-9.0 and sodium acetate for pH 4.0-5.0), 1.55 mM Triton X-100, 0.025% BSA, 1 mM MgCl2, and 400 μM bovine brain sphingomyelin spiked with 22000 dpm of [3H]-bovine sphingomyelin ([…]). Reactions were carried out in borosilicate glass culture tubes at 37° C., overnight, followed by quenching with 1.2 ml of ice-cold 10% trichloroacetic acid, incubation at 4° C. for 30 min, and centrifugation at 2000 rpm at 4° C. for 20 min. One ml of supernatant was transferred to clean tubes, 1 ml of ether was added, the mixture vortexed, and centrifuged at 2000 rpm for 5 min. Eight hundred μl of the bottom phase was transferred to scintillation vials, 5 ml of Scintiverse BD (Fisher Scientific, Fair Lawn, N.J.) was added, and samples were counted. […]
Reactions were carried out in borosilicate glass culture tubes at 37° C., overnight, followed by quenching with 1.2 ml of ice-cold 10% trichloroacetic acid, incubation at 4° C. for 30 min, and centrifugation at 2000 rpm at 4° C. for 20 min. […] Eight hundred μl of the bottom phase was transferred to scintillation vials, 5 ml of Scintiverse BD (Fisher Scientific, Fair Lawn, N.J.) was added, and samples were counted. […]

[3] = test system: PS-DKO cells; experiment: Conversion of fluorescent sphingomyelin to ceramide in mitochondrial membranes (TLC); format: cell-based, mouse; conditions: PS-DKO (presenilin-mutant) cells; BI
Experimental: SMase activity was therefore measured in MEFs lacking APP and APLP2 (APP-DKO) (28). […] To test this, SMases was measured in PSDKO cells treated with α- and β-secretase inhibitors, to abrogate the production of C83 and C99, respectively. As controls, the γ-secretase products Aβ and AICD were also added back (FIG. 9G). […] For corroboration in vivo, PS-DKO and control cells were incubated with a fluorescent analog of sphingomyelin and analyzed its conversion to ceramide.
To explore this further, PS-DKO and control cells were incubated with a fluorescent sphingomyelin (FL-SM) and its localization and conversion to ceramide in mitochondrial membranes was analyzed by thin-layer chromatography (TLC).
To explore this further, we incubated PS-DKO and control cells with fluorescent sphingomyelin and analyzed its localization and conversion to ceramide in mitochondrial membranes by thin-layer chromatography (TLC).

SMILES | mitochondrial content or biogenesis [1] | acid (aSMase) and neutral (nSMase) sphingomyelinase activity / sphingolipid turnover [2] | increase in ceramide derived from fluorescent sphingomyelin at mitochondria [3]
C[C@H](NC(=O)Cc1cc(F)cc(F)c1)C(=O)N[C@H](C(=O)OC(C)(C)C)c1ccccc1 [DAPT] | without altering mitochondrial content or biogenesis |  | 
C[C@@H](NC(=O)c1cc(C(=O)N[C@@H](Cc2ccccc2)[C@H](O)CNC2CC2)cc(N(C)S(C)(=O)=O)c1)c1ccccc1 [BI, β-secretase inhibitor IV] |  | reduced significantly; also recorded: attenuation of sphingolipid turnover; also recorded: attenuation of sphingolipid synthesis and hydrolysis by sphingomyelinases | this increase disappeared; also recorded: the elevated deposition of ceramide at mitochondria disappeared
